Experimental data taken from patent publication US8748448B2, “Combination analgesic employing opioid agonist and neutral antagonist” (AIKO Biotechnology, priority 2007, dated 2014).

Tests used:
[1] = system: morphine-induced antinociception; settings: cited from earlier work
[2] = system: hydrocodone induced GI inhibition; assay: GI transit assay (charcoal meal): reversal of hydrocodone induced GI inhibition

## 6β-naltrexol
[1]; administered intraperitoneally, Wang et al. 2001
  effect on morphine-induced antinociception: reverses
[1]; published observation, depending on route of administration
  potency for reversing morphine-induced antinociception, less potent than naltrexone: 5-10 fold
[2]; antagonist i.v., hydrocodone A90 3.2 mg/kg i.v.
  GI Transit ID50: 0.0443 mg/kg
[2]; antagonist p.o. co-administered with hydrocodone A90 32 mg/kg p.o.
  GI Transit ID50: 1.290 mg/kg
[2]; antagonist p.o., hydrocodone A90 3.2 mg/kg i.v.
  GI Transit ID50: 0.410 mg/kg
[2]; on administration of the antagonist
  induction of diarrhea: absent
